US9408387B2, “Safening 6-amino-2-(substituted phenyl)-5-substituted-4-pyrimidinecarboxylate herbicide injury on cereal crops” (Dow AgroSciences LLC, priority 2009, dated 2016)

Columns and labels:
Type in all cases: in vivo
[1] = tested on: wild mustard (Sinapis arvensis L.; SINAR); experiment: Postemergence herbicidal activity, greenhouse, visual injury: SINAR
GALAP = experiment: Postemergence herbicidal activity, greenhouse, visual injury: GALAP; conditions: 20-22 d
Description: (§1) Evaluation of Postemergence Herbicidal Safening in Cereal Crops
(§2) Seeds of the desired test plant species were planted in Sun Gro MetroMix® 306 planting mixture, which typically has a pH of 6.0 to 6.8 and an organic matter content of about 30 percent, in plastic pots with a surface area of 103.2 square centimeters (cm^2). When required to ensure good germination and healthy plants, a fungicide treatment and/or other chemical or physical treatment was applied. The plants were grown for 7-36 days (d) in a greenhouse with an approximate 14-hour (h) photoperiod which was maintained at about 18° C. during the day and 17° C. during the night. Nutrients and water were added on a regular basis and supplemental lighting was provided with overhead metal halide 1000-Watt lamps as necessary. The plants were employed for testing when they reached the second or third true leaf stage.
(§3) Treatments consisted of the acids or esters of compounds 1-10 and cloquintocet-mexyl (CQC-M), fenchlorazole-ethyl, mefenpyr-diethyl alone and in combination. Weighed amounts of acid or methyl esters of the compounds of formula (I) were dissolved in a volume of 97:3 v/v acetone/dimethylsulfoxide (DMSO) to obtain concentrated solutions. […] The concentrated solutions of the test compound were diluted with the addition of an aqueous mixture containing acetone, water, isopropyl alcohol, DMSO, Agri-Dex crop oil concentrate, and Triton® X-77 surfactant in a 64.7:26.0:6.7:2.0:0.7:0.01 v/v ratio. Test compounds were diluted to the appropriate application rate with a dilution solution which was prepared by mixing the appropriate volume of 97:3 v/v acetone/DMSO and the appropriate volume of an aqueous mixture containing acetone, water, isopropyl alcohol, DMSO, Agri-Dex crop oil concentrate, and Triton® X-77 surfactant in a 64.7:26.0:6.7:2.0:0.7:0.01 v/v ratio. Compound requirements are based upon a 12 mL application volume at a rate of 187 liters per hectare (L/ha). The concentrated solutions of the safener were prepared following the same procedure. Weighed amounts of safener were dissolved in a volume of 97:3 v/v acetone/DMSO to obtain concentrated safener solutions.
(§4) Spray solutions of the herbicide safener and test compound mixtures were prepared by adding the concentrated solutions to the appropriate amount of dilution solution to form 12 mL spray solution with active ingredients in combinations.
(§5) Formulated compounds were applied to the plant material with an overhead Mandel track sprayer equipped with 8002E nozzles calibrated to deliver 187 L/ha over an application area of 0.503 square meters (m^2) at a spray height of 18 inches (43 centimeters (cm)) above average plant canopy. Control plants were sprayed in the same manner with the solvent blank.
(§6) The treated plants and control plants were placed in a greenhouse as described above and watered by sub-irrigation to prevent wash-off of the test compounds. After 20-22 d, the condition of the test plants as compared with that of the control plants was determined visually and scored on a scale of 0 to 100 percent where 0 corresponds to no injury and 100 corresponds to complete kill.
(§7) Colby's equation was used to determine the herbicidal effects expected from the mixtures (Colby, S. R. Calculation of the synergistic and antagonistic response of herbicide combinations. Weeds 1967, 15, 20-22.).
The following equation was used to calculate the expected activity of mixtures containing two active ingredients, A and B: Expected=A+B−(A×B/100) […]

[2] = tested on: corn poppy (Papaver rhoeas L; PAPRH); experiment: Postemergence herbicidal activity, greenhouse, visual injury: corn poppy; conditions: for PAPRH Ob (visual injury): 20-22 d
Method in brief: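 Postemergence track spray, 187 L/ha, acetone/DMSO-based carrier with crop oil and Triton X-77; plants at 2nd–3rd true leaf. Safeners CQC-M, fenchlorazole-ethyl, mefenpyr-diethyl tested alone and in combination. Visual injury 0 (none) to 100 (complete kill), scored at 20-22 d.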

SASKR = experiment: Postemergence herbicidal activity, greenhouse, visual injury: SASKR; conditions: for SASKR Ob (visual injury): 20-22 d
Description: as §1, §2, §3, §4, §5, §6, §7
(§8) The following equation was used to calculate the expected activity of mixtures containing two active ingredients, A and B: Expected=A+B−(A×B/100)
(§9) A=observed efficacy of active ingredient A at the same concentration as used in the mixture.
(§10) B=observed efficacy of active ingredient B at the same concentration as used in the mixture.

CIRAR = experiment: Postemergence herbicidal activity, greenhouse, visual injury: CIRAR; conditions: for CIRAR Ob (visual injury): 20-22 d
Description: as §1, §2, §3, §4, §5, §6, §7, §8, §9, §10

[3] = Compound 10 0, CQC-M 8.75 g ae/ha
[4] = Compound 10 0, CQC-M 17.5 g ae/ha
[5] = Compound 10 0, CQC-M 35 g ae/ha
[6] = Compound 10 0, CQC-M 70 g ae/ha
[7] = Compound 10 0, CQC-M 140 g ae/ha

CCCCCC(C)OC(=O)COc1ccc(Cl)c2cccnc12 (stereo not drawn) [CQC-M, cloquintocet-mexyl, reference compound]
0%: SINAR Ob (Observed values, % control) [1, 3] | SINAR Ob (Observed values, % control) [1, 4] | SINAR Ob (Observed values, % control) [1, 5] | SINAR Ob (Observed values, % control) [1, 6] | SINAR Ob (Observed values, % control) [1, 7] | GALAP Ob (visual injury) (GALAP; safener alone 35 g/ha) | GALAP Ob (visual injury) (GALAP; safener alone 70 g/ha) | GALAP Ob (visual injury) (GALAP; safener alone 140 g/ha) | PAPRH Ob (Observed values, % control) [2, 3] | PAPRH Ob (Observed values, % control) [2, 4] | PAPRH Ob (Observed values, % control) [2, 5] | PAPRH Ob (Observed values, % control) [2, 6] | PAPRH Ob (Observed values, % control) [2, 7] | PAPRH Ob (visual injury) ([2]; safener alone 8.75 g/ha) | PAPRH Ob (visual injury) ([2]; safener alone 70 g/ha) | PAPRH Ob (visual injury) ([2]; safener alone 140 g/ha) | SASKR Ob (Observed values, % control) (SASKR; [3]) | SASKR Ob (Observed values, % control) (SASKR; [4]) | SASKR Ob (Observed values, % control) (SASKR; [5]) | SASKR Ob (Observed values, % control) (SASKR; [6]) | SASKR Ob (Observed values, % control) (SASKR; [7]) | SASKR Ob (visual injury) (SASKR; safener alone 70 g/ha) | SASKR Ob (visual injury) (SASKR; safener alone 140 g/ha) | CIRAR Ob (Observed values, % control) (CIRAR; [3]) | CIRAR Ob (Observed values, % control) (CIRAR; [4]) | CIRAR Ob (Observed values, % control) (CIRAR; [5]) | CIRAR Ob (Observed values, % control) (CIRAR; [6]) | CIRAR Ob (Observed values, % control) (CIRAR; [7]) | CIRAR Ob (visual injury) (CIRAR; safener alone 70 g/ha) | CIRAR Ob (visual injury) (CIRAR; safener alone 140 g/ha)
